Here are results for three molecules from patent US20100130554A1, “USE OF 4-CYCLOPROPYLMETHOXY-N-(3,5-DICHLORO-1-OXIDOPYRIDIN-4-YL)-5-(METHOXY)PYRIDINE-2-CARBOXAMIDE FOR THE TREATMENT OF MOTOR DISORDERS RELATED TO PARKINSON'S DISEASE” (SANOFI-AVENTIS, priority 2007, published 2010).

One series relates to ferrets. In words: Evaluation of the emetic effects in ferrets after oral gavage. The format is in vivo. Conditions: observed up to 6 hours. As to the method: The emetic capacity of 4-cyclopropylmethoxy-N-(3,5-dichloro-1-oxidopyridin-4-yl)-5-(methoxy)pyridine-2-carboxamide was evaluated in ferrets. Two groups of ferrets were used, the first being given the carrier (PEG200) and the second being given the 4-cyclopropylmethoxy-N-(3,5-dichloro-1-oxidopyridin-4-yl)-5-(methoxy)pyridine-2-carboxamide in solution in the carrier (PEG 200), by oral gavage. The animals were observed continually for 2 hours following administration, and then every hour until 6 hours after administration. The clinical signs (in particular, retching and vomiting) were noted.
The emetic capacity of (R)-(−)-rolipram was evaluated in the ferrets. Two groups of ferrets were used, the first being given the carrier (PEG200) and the second being given the […] in solution in the carrier (PEG 200), by oral gavage, at doses of 0.05 mg/kg and of 0.1 mg/kg. The animals were observed continually for the 2 hours following administration, and then once an hour up to 6 hours after the administration. The clinical signs were noted.

A further series concerns dopamine uptake sites. In words: Protection in a model of Parkinson's disease: dopaminergic neuron loss in mice poisoned with MPTP, striatal dopamine uptake sites quantified by GBR12935 binding. Conditions: MPTP-poisoned C57BL6 mice, striatum, gavage twice a day for 17 days, MPTP only = 58%, p<0.01 vs MPTP only. The format is in vivo. How it is done: The effects of the 4-cyclopropylmethoxy-N-(3,5-dichloro-1-oxidopyridin-4-yl)-5-(methoxy)pyridine-2-carboxamide used according to the invention were evaluated in mice using a model of dopaminergic neuron loss.
Protection in a Model of Parkinson's disease (Dopaminergic Neuron Loss in Mice Poisoned with MPTP (1-methyl-4-phenyl-1,2,3,6-tetrahydropyridine):
C57BL6 mice are given 4 intraperitoneal injections of 20 mg/kg of MPTP, each 2 hours apart. The 4-cyclopropylmethoxy-N-(3,5-dichloro-1-oxidopyridin-4-yl)-5-(methoxy)pyridine-2-carboxamide in solution in the carrier (methylcellulose (MC) (0.6%)+Tween-80 (0.5%)) is administered by gavage between the 2nd and 3rd injection of MPTP and just after the final injection of MPTP, and then twice a day for 17 days at the total daily doses of 0.015 and 0.050 mg/kg. Twenty-four hours after the final treatment, the striatum is removed and the dopamine uptake sites are quantified using a GBR12935 (1-[2-(diphenylmethoxy)ethyl]-4-(3-phenylpropyl)piperazine) binding method.

The conditions of series [1]: cited from earlier work.
Where [2] appears, read: oral gavage in PEG200, 0.1 mg/kg.

Take `COc1cnc(C(=O)Nc2c(Cl)c[n+]([O-])cc2Cl)cc1OCC1CC1` [4-cyclopropylmethoxy-N-(3,5-dichloro-1-oxidopyridin-4-yl)-5-(methoxy)pyridine-2-carboxamide]: the “emetic effects (retching and vomiting)” value with ferrets (setting [2]) is given as “neither retching nor vomiting”. Besides, the figures for the “density of the dopamine uptake sites, % of the level observed in the normal animals” value with dopamine uptake sites (total daily dose 0.015 mg/kg/d) and in the series on dopamine uptake sites (total daily dose 0.050 mg/kg/d) were 82% and 85%, respectively.
With `COc1ccc([C@@H]2CNC(=O)C2)cc1OC1CCCC1` [(R)-(−)-rolipram, (4R)-4-[3-(cyclopentyloxy)-4-methoxyphenyl]pyrrolidine-2-one], the “emetic effects (retching and vomiting)” value with ferrets (oral gavage in PEG200, 0.05 mg/kg) is recorded as “induce vomiting”; in the series on ferrets (setting [2]) it was “induce vomiting”.
For `COc1ccc(C2CNC(=O)C2)cc1OC1CCCC1` (stereo not drawn) [rolipram], the “emetic effects in clinical studies” value in series [1] is “induce emetic effects”.
